Experimental data published in patent US11572590B2, “Methods for evaluating tumor cell spheroids using 3D microfluidic cell culture device” (Dana-Farber Cancer Institute, Inc., priority 2017, dated 2023).
Like-named read-outs stand apart in the source and are kept apart here.

What was measured:
Assay in all cases: SelectScreen Kinase Profiling, single point inhibition and IC50 for off-target kinases
Assay type in all cases: biochemical
off-target kinases [1] = target: T1, off-target kinases (Homo sapiens, UniProt P42679); conditions: MATK (HYL), ZLYTE, ATP Km app
T1 sequence (P42679 1-507): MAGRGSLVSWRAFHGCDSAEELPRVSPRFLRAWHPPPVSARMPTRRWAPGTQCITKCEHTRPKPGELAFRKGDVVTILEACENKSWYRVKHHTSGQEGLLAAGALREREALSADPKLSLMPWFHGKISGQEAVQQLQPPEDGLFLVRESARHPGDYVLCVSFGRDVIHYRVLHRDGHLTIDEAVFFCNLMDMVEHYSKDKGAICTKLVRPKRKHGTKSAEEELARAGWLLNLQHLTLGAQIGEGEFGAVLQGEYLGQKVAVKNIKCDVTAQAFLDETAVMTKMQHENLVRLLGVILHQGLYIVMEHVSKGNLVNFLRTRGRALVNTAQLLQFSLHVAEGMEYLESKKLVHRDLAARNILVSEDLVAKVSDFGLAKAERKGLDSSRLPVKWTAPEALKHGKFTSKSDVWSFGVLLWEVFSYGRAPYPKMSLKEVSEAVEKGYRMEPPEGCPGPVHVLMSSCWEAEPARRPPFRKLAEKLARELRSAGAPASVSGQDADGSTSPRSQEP

off-target kinases [2] = target: off-target kinases (Homo sapiens, UniProt Q15759); conditions: MAPK11 (p38 beta), ZLYTE, ATP Km app
off-target kinases [3] = target: off-target kinases (Homo sapiens, UniProt Q8N5S9); conditions: CAMKK1 (CAMKKA), LanthaScreen Binding
off-target kinases [4] = target: T2, off-target kinases (Homo sapiens, UniProt Q9Y2U5); conditions: MAP3K2 (MEKK2), LanthaScreen Binding
T2 sequence (Q9Y2U5 1-619): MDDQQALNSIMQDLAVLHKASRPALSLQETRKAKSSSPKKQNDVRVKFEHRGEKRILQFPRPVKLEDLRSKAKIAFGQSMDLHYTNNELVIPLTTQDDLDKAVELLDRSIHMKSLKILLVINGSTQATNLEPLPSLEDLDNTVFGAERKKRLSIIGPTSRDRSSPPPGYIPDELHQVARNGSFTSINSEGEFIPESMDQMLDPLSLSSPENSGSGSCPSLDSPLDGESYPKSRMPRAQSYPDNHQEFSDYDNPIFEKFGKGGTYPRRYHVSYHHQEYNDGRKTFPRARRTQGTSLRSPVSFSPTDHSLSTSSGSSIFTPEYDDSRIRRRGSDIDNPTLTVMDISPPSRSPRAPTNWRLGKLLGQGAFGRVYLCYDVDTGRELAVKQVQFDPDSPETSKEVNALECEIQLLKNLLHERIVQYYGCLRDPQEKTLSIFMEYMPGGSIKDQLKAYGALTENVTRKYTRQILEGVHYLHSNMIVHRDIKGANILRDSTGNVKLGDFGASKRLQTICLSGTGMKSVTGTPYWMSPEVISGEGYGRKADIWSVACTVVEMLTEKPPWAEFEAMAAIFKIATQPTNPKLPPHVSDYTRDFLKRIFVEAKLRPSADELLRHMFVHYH

Chain of off-target kinases (Homo sapiens, UniProt Q15759) (Q15759 whole entry): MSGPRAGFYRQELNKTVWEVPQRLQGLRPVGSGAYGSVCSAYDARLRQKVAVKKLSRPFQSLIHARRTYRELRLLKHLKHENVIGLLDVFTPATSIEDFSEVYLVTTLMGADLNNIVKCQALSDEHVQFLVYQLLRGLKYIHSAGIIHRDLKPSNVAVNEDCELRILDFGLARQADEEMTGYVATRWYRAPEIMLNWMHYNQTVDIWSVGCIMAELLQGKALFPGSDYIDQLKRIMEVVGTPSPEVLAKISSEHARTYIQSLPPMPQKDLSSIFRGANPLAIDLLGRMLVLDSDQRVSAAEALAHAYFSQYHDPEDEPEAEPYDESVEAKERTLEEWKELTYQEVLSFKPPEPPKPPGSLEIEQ
Chain of off-target kinases (Homo sapiens, UniProt Q8N5S9) (Q8N5S9 whole entry): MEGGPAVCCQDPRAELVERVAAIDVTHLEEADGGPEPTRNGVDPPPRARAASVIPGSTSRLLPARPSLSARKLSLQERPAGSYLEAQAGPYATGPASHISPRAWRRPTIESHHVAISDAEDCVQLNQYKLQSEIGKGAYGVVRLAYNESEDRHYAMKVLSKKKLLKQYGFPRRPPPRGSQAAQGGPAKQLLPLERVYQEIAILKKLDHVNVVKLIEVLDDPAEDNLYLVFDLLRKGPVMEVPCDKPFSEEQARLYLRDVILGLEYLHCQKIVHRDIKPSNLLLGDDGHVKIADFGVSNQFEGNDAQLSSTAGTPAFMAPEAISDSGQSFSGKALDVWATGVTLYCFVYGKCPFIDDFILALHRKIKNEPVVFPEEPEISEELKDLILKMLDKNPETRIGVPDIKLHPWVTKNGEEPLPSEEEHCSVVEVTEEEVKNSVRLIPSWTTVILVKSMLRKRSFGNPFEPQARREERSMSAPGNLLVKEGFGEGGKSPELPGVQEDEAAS

Structure (SMILES): N#Cc1cc(-c2ncnc(Nc3ccc(N4CCN(C5COC5)CC4)cc3)n2)ccc1OC1CCOCC1 [Compound 1, 5-(4-((4-(4-(oxetan-3-yl)piperazin-1-yl)phenyl)amino)-1,3,5-triazin-2-yl)-2-((tetrahydro-2H-pyran-4-yl)oxy)benzonitrile]
- inhibition (off-target kinases [1]; read-out: % Inhibition 1): 1%
- inhibition (off-target kinases [1]; read-out: % Inhibition 2): 2%
- inhibition (off-target kinases [1]; read-out: % Inhibition Avg): 2%
- inhibition (off-target kinases [2]; read-out: % Inhibition 1): 6%
- inhibition (off-target kinases [2]; read-out: % Inhibition 2): 4%
- inhibition (off-target kinases [2]; read-out: % Inhibition Avg): 5%
- inhibition (off-target kinases [3]; read-out: % Inhibition 1): 2%
- inhibition (off-target kinases [3]; read-out: % Inhibition 2): -1%
- inhibition (off-target kinases [3]; read-out: % Inhibition Avg): 0%
- inhibition (off-target kinases [4]; read-out: % Inhibition 1): 11%
- inhibition (off-target kinases [4]; read-out: % Inhibition 2): 9%
- inhibition (off-target kinases [4]; read-out: % Inhibition Avg): 10%
